Data as given in the kinase profiling compilation of Christmann-Franck et al. (2016).

How the values were obtained:
Assay in all cases: KINOMEscan competition binding
Settings in all cases: compound 10.0 µM
[1] = biological target: MARK4 (human) (UniProt Q96L34)
[2] = biological target: TEC (human) (UniProt P42680)
[3] = biological target: ICK (human) (UniProt Q9UPZ9)
[4] = biological target: BMPR1A (human) (UniProt P36894)
[5] = biological target: TGFBR2 (human) (UniProt P37173)
[6] = biological target: LYN (human) (UniProt P07948)
LYN (human), sequence (P07948 whole entry, looked up): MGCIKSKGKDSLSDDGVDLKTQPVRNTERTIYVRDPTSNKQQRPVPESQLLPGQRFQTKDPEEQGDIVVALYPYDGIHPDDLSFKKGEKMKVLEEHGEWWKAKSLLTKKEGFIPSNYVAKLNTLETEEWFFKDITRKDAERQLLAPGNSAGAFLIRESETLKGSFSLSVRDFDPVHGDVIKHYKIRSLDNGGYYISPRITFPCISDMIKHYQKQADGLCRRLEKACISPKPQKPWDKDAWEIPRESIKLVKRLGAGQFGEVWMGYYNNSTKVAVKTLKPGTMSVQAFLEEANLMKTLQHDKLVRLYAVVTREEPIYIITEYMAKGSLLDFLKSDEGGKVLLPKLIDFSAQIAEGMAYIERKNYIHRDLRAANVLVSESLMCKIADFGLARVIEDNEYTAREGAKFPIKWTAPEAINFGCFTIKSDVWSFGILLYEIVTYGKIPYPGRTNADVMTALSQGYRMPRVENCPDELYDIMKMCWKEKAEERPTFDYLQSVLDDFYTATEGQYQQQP

[7] = biological target: TAOK1 (human) (UniProt Q7L7X3)
[8] = biological target: PRKCH (human) (UniProt P24723)
[9] = biological target: STK38 (human) (UniProt Q15208)
[10] = biological target: MAPK1 (human) (UniProt P28482)
[11] = biological target: STK36 (human) (UniProt Q9NRP7)
[12] = biological target: PIK3C2G (human) (UniProt O75747)
[13] = biological target: HUNK (human) (UniProt P57058)
[14] = biological target: MAP3K15 (human) (UniProt Q6ZN16)
MAP3K15 (human), sequence (Q6ZN16 whole entry, looked up): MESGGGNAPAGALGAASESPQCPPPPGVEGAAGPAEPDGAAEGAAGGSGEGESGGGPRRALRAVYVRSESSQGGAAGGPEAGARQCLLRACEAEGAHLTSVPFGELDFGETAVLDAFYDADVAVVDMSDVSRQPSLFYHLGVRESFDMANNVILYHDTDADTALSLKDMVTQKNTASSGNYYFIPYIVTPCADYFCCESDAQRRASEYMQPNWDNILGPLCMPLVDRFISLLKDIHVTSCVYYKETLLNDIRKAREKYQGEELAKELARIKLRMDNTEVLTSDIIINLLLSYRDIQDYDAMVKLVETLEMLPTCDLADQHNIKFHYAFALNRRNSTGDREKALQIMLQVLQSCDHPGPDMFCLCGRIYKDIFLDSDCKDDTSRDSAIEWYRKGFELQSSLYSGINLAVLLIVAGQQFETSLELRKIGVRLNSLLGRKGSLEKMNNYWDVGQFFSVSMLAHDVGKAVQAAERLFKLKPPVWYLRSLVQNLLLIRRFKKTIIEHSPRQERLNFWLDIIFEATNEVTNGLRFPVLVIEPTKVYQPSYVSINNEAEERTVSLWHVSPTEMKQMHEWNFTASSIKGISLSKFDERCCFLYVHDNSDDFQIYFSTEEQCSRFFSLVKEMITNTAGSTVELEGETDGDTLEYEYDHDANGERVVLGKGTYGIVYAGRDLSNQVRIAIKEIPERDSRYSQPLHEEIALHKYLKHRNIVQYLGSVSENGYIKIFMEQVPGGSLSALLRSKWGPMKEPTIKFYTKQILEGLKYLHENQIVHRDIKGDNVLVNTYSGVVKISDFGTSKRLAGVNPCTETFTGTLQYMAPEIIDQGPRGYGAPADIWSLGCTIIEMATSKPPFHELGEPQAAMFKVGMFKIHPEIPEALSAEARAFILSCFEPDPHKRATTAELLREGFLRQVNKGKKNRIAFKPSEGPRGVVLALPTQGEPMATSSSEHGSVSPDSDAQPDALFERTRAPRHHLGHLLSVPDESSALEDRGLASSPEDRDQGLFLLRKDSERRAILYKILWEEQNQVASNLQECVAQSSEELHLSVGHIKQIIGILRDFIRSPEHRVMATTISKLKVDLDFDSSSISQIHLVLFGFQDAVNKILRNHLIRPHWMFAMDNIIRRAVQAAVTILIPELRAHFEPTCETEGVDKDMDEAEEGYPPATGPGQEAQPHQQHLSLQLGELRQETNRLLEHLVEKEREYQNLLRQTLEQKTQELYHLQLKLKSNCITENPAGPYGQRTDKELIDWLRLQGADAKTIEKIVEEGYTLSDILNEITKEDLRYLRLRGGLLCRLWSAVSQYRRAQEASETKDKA

[15] = biological target: STK32A (human) (UniProt Q8WU08)
[16] = biological target: EPHB6 (human) (UniProt O15197)
[17] = biological target: EIF2AK2 (human) (UniProt P19525)
[18] = biological target: MAP2K5 (human) (UniProt Q13163)
[19] = biological target: PHKG1 (human) (UniProt Q16816)
[20] = biological target: TEK (human) (UniProt Q02763)
[21] = biological target: ABL2 (human) (UniProt P42684)
[22] = biological target: CDK17 (human) (UniProt Q00537)
[23] = biological target: FRK (human) (UniProt P42685)
FRK (human), sequence (P42685 whole entry, looked up): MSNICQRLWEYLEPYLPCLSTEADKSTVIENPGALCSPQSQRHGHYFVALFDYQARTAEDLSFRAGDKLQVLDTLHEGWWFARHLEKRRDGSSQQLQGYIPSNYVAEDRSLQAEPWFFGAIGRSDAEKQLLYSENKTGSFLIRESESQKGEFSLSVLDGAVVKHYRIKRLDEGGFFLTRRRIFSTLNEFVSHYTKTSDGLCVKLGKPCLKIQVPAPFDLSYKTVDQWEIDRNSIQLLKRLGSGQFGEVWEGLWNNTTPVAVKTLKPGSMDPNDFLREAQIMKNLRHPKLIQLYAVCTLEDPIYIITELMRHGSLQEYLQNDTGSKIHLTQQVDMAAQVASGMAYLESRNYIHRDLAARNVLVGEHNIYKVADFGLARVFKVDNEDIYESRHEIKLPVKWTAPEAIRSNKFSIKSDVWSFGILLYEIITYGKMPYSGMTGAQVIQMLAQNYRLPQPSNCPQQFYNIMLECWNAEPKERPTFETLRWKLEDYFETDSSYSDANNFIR

[24] = biological target: CAMKK2 (human) (UniProt Q96RR4)
[25] = biological target: DDR2 (human) (UniProt Q16832)
[26] = biological target: MARK1 (human) (UniProt Q9P0L2)
[27] = biological target: FLT3 (human) (UniProt P36888)
FLT3 (human), sequence (P36888 whole entry, looked up): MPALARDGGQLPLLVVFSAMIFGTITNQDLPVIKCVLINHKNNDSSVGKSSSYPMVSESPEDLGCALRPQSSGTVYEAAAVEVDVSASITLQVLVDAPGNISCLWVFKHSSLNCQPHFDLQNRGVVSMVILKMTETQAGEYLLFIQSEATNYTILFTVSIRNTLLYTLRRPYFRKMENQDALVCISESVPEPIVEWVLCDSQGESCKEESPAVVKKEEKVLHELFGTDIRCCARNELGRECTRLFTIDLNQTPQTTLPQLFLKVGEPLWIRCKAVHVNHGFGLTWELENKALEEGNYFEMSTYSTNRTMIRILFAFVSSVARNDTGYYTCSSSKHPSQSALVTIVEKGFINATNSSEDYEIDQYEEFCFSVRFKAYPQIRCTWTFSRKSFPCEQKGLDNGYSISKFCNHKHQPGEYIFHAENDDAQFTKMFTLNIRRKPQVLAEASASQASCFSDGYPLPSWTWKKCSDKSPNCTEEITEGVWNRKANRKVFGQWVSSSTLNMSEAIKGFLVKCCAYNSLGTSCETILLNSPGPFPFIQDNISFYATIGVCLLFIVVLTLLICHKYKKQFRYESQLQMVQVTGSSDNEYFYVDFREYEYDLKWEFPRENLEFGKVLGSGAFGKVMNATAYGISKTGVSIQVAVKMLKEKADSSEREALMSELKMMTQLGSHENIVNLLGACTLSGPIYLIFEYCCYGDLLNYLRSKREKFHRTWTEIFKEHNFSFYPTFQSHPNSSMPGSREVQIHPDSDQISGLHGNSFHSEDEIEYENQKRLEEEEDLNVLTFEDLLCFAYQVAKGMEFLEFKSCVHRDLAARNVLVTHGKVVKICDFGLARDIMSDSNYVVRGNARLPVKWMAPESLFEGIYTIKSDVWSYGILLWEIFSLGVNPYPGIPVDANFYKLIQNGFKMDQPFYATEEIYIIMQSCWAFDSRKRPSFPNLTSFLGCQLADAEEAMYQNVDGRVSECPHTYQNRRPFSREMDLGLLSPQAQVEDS

[28] = biological target: STK16 (human) (UniProt O75716)
STK16 (human), sequence (O75716 whole entry, looked up): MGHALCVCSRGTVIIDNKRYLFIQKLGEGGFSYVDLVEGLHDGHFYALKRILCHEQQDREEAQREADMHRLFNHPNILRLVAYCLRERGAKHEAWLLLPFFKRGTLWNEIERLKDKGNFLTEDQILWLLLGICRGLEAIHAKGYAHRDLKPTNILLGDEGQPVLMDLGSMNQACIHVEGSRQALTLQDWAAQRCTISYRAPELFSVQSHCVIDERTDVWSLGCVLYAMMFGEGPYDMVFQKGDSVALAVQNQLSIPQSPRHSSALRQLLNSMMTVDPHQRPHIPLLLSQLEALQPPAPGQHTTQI

[29] = biological target: RIOK1 (human) (UniProt Q9BRS2)
[30] = biological target: MYLK4 (human) (UniProt Q86YV6)
[31] = biological target: RPS6KA4 KD2 (human) (UniProt O75676)
[32] = biological target: MAPKAPK2 (human) (UniProt P49137)
[33] = biological target: MARK3 (human) (UniProt P27448)
MARK3 (human), sequence (P27448 whole entry, looked up): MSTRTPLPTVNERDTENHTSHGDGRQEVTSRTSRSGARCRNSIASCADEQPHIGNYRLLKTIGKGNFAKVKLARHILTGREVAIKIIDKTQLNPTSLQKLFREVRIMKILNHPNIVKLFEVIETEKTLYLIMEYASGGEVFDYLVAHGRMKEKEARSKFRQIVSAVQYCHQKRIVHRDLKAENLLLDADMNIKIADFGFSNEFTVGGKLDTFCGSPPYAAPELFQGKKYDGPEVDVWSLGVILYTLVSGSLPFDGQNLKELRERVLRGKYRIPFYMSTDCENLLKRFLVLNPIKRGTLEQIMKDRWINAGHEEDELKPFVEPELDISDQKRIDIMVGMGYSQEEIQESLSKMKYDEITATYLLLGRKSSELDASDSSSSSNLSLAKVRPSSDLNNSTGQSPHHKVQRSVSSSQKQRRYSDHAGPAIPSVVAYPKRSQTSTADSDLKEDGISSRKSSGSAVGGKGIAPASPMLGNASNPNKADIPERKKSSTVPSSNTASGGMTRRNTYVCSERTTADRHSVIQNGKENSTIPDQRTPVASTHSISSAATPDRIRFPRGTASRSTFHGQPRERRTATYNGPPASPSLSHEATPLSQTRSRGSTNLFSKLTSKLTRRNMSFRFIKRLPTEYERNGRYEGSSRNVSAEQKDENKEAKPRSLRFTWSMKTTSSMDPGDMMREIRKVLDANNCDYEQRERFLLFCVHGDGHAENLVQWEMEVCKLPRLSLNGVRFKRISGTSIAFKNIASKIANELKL

[34] = biological target: SGK3 (human) (UniProt Q96BR1)
[35] = biological target: SGK110 (human) (UniProt P0C264)
[36] = biological target: DMPK (human) (UniProt Q09013)
[37] = biological target: MAP2K2 (human) (UniProt P36507)
[38] = test system: ABL1 (human), P00519 [Y253F]
[39] = biological target: PLK1 (human) (UniProt P53350)
[40] = biological target: DYRK1B (human) (UniProt Q9Y463)

TGFBR2 (human), sequence (P37173 whole entry, looked up): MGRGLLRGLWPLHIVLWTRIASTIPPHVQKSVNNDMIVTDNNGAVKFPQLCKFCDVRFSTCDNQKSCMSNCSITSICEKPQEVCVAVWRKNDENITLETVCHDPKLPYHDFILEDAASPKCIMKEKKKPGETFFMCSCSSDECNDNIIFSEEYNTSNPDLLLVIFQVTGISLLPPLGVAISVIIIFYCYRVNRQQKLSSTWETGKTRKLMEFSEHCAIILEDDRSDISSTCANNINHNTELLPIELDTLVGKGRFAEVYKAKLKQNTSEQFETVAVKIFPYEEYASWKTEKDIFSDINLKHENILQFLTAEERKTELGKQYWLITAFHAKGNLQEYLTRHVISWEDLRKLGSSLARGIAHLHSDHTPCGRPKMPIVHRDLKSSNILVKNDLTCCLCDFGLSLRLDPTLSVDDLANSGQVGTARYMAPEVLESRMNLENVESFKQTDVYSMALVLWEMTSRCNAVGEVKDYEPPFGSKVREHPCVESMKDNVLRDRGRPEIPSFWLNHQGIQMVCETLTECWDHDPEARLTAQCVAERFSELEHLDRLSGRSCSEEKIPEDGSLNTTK

Compound	kinase still bound, per cent of control [1] [%]	kinase still bound, per cent of control [2] [%]	kinase still bound, per cent of control [3] [%]	kinase still bound, per cent of control [4] [%]	kinase still bound, per cent of control [5] [%]	kinase still bound, per cent of control [6] [%]	kinase still bound, per cent of control [7] [%]	kinase still bound, per cent of control [8] [%]	kinase still bound, per cent of control [9] [%]	kinase still bound, per cent of control [10] [%]	kinase still bound, per cent of control [11] [%]	kinase still bound, per cent of control [12] [%]	kinase still bound, per cent of control [13] [%]	kinase still bound, per cent of control [14] [%]	kinase still bound, per cent of control [15] [%]	kinase still bound, per cent of control [16] [%]	kinase still bound, per cent of control [17] [%]	kinase still bound, per cent of control [18] [%]	kinase still bound, per cent of control [19] [%]	kinase still bound, per cent of control [20] [%]	other results
COc1cc(C(=O)N2CCC(N3CCN(C)CC3)CC2)ccc1Nc1ncc2c(n1)N(C)c1ccccc1C(=O)N2C	78	100	90	76	100	100	28	100	96	85	97	100	100	69	100	31	84	85	54	100	kinase still bound, per cent of control [21]: 97%; kinase still bound, per cent of control [22]: 83%; kinase still bound, per cent of control [23]: 34%; kinase still bound, per cent of control [24]: 31%; kinase still bound, per cent of control [25]: 100%; kinase still bound, per cent of control [26]: 87%; kinase still bound, per cent of control [27]: 100%; kinase still bound, per cent of control [28]: 62%; kinase still bound, per cent of control [29]: 100%; kinase still bound, per cent of control [30]: 80%; kinase still bound, per cent of control [31]: 46%; kinase still bound, per cent of control [32]: 100%; kinase still bound, per cent of control [33]: 98%; kinase still bound, per cent of control [34]: 95%; kinase still bound, per cent of control [35]: 62%; kinase still bound, per cent of control [36]: 100%; kinase still bound, per cent of control [37]: 99%; kinase still bound, per cent of control [38]: 89%; kinase still bound, per cent of control [39]: 0.7%; kinase still bound, per cent of control [40]: 94%
C=CC(=O)Nc1cc(-n2c(=O)ccc3cnc4ccc(-c5cn[nH]c5)cc4c32)ccc1C	64	6	67	12	82	100	22	100	87	100	79	5.9	86	56	100	54	94	0.3	58	100	kinase still bound, per cent of control [21]: 86%; kinase still bound, per cent of control [22]: 92%; kinase still bound, per cent of control [23]: 99%; kinase still bound, per cent of control [24]: 49%; kinase still bound, per cent of control [25]: 75%; kinase still bound, per cent of control [26]: 78%; kinase still bound, per cent of control [27]: 6.2%; kinase still bound, per cent of control [28]: 52%; kinase still bound, per cent of control [29]: 53%; kinase still bound, per cent of control [30]: 88%; kinase still bound, per cent of control [31]: 94%; kinase still bound, per cent of control [32]: 100%; kinase still bound, per cent of control [33]: 100%; kinase still bound, per cent of control [34]: 96%; kinase still bound, per cent of control [35]: 100%; kinase still bound, per cent of control [36]: 59%; kinase still bound, per cent of control [37]: 83%; kinase still bound, per cent of control [38]: 71%; kinase still bound, per cent of control [39]: 80%; kinase still bound, per cent of control [40]: 1.8%
CN(C)C/C=C/C(=O)Nc1ccc(C(=O)Nc2cccc(Nc3nccc(-c4cccnc4)n3)c2)cc1	26	100	62	36	50	100	28	100	90	77	99	100	69	56	95	3.9	50	41	96	94	kinase still bound, per cent of control [21]: 100%; kinase still bound, per cent of control [22]: 92%; kinase still bound, per cent of control [23]: 100%; kinase still bound, per cent of control [24]: 16%; kinase still bound, per cent of control [25]: 64%; kinase still bound, per cent of control [26]: 70%; kinase still bound, per cent of control [27]: 36%; kinase still bound, per cent of control [28]: 1.2%; kinase still bound, per cent of control [29]: 10%; kinase still bound, per cent of control [30]: 36%; kinase still bound, per cent of control [31]: 80%; kinase still bound, per cent of control [32]: 100%; kinase still bound, per cent of control [33]: 100%; kinase still bound, per cent of control [34]: 65%; kinase still bound, per cent of control [35]: 100%; kinase still bound, per cent of control [36]: 64%; kinase still bound, per cent of control [37]: 87%; kinase still bound, per cent of control [38]: 40%; kinase still bound, per cent of control [39]: 100%; kinase still bound, per cent of control [40]: 24%
